# Source: US4789543A, “Neutral technetium 99-m complexes useful as radiodiagnostic agents” (E. I. Du Pont de Nemours and Company, priority 1984, dated 1988)
# Columns and labels:
# [1] = system: hepatobiliary transit; details: commercially available agent, background statement; cited from earlier work
# [2] = system: hepatobiliary transit (liver, gall bladder and gastro-intestinal tract); assay: Visualization of hepatobiliary transit by scintillation camera after intravenous injection (rabbit); format: in vivo, male New Zealand Albino rabbit
# Procedure: A lyophylized vial of HEPATOLITE™ (New England Nuclear Corporation's brand of Technetium Tc^99m Disofenin) is labelled with ^99m Tc-pertechnetate in accordance with manufacturer's directions. At least 1 mCi of the labelled preparation is injected intravenously into a 2.5 Kg male New Zealand Albino rabbit. The rabbit is positioned under a Searle Pho-Gamma scintillation camera in such a way that the liver and gastro-intestinal tract are within the field of view.
# Greater than 1 mCi of the ^99m Tc-Cl(SO2)-DMPE complex from either Example 1 or 2 is injected into a rabbit as in Example 3.
smiles,measurement,setting,value
"CC(C)c1cccc(C(C)C)c1NC(=O)CN(CC(=O)O)CC(=O)O (99mTc complex, metal not drawn) [Disofenin]",time to obtain an image of the hepatobiliary transit,[1],≤ 30 min
same,sequential images from the time of injection,"[2]; 2.5 Kg male rabbit, at least 1 mCi i.v.","initial liver uptake with gradual visualization of the gall bladder and gastro-intestinal tract, analogous to the diagnostically efficacious results obtained in clinical studies of normal healthy humans"
same,"time to images of the liver, gall bladder and gastro-intestinal tract (hepatobiliary transit)","[2]; rabbit, > 1 mCi (complex) or at least 1 mCi (Disofenin) i.v., sequential images",about 30 minutes
